Test results as given in US9211310B2, “Use of a Chinese medicine composition in preparing medicaments for treating secondary prevention of myocardial infarction” (TASLY PHARMACEUTICAL GROUP CO., LTD, priority 2010, dated 2015).

System: patients after acute myocardial infarction
Assay: TCM symptom score, total and single (chest pain, chest tightness, short breath, fatigue, palpitation, spontaneous perspiration, pale complexion), same clinical trial
Assay type: in vivo, human
Parameters: total score of TCM symptom, Mean / total score of TCM symptom, Min / total score of TCM symptom, Max / total score of TCM symptom, Md / change of total score of TCM symptom, Mean / change of total score of TCM symptom, Max / change of total score of TCM symptom, Md: scale not given here
Conditions: PP
Text: 3508 patients who were in accordance with the diagnostic standards of AMI for 28 days to 2 years and differentiated as Qi deficiency and blood stagnation syndrome by TCM were studied. 0.5 g Chinese medicine composition prepared by the method of EXAMPLE 1 (Coded as QSYQ) was administrated half an hour after meal, 3 times per day.
They included the overall survival time, angina pectoris score, TCM symptom score and life quality score, where angina pectoris score, TCM symptom score and life quality score were evaluated at randomization, in 1st, 3rd, 6th, 9th, 12th month after treatment and 18th month after follow-up.
The analysis method referred to the angina pectoris score.

[1] = 3 months after treatment-baseline
[2] = 6 months after treatment-baseline

CC(=O)Oc1ccccc1C(=O)O [Control group, aspirine]
change of short breath 2, number of patients [1]: 309
change of short breath 4, % of patients [1]: (2.36%)
change of short breath 4, number of patients [1]: 34
change of short breath 6, % of patients [1]: (0.55%)
change of short breath 6, number of patients [1]: 8
change of short breath −2, % of patients [1]: (5.27%)
change of short breath −2, number of patients [1]: 76
change of short breath −4, % of patients [1]: (0.14%)
change of short breath −4, number of patients [1]: 2
change of short breath −6, % of patients [1]: (0.00%)
change of short breath −6, number of patients [1]: 0
change of spontaneous perspiration 0, number of patients [1]: 898
change of spontaneous perspiration 0, percent of patients [1]: (62.23%)
change of spontaneous perspiration 1, number of patients [1]: 342
change of spontaneous perspiration 1, percent of patients [1]: (23.70%)
change of spontaneous perspiration 2, number of patients [1]: 71
change of spontaneous perspiration 2, percent of patients [1]: (4.92%)
change of spontaneous perspiration 3, number of patients [1]: 16
change of spontaneous perspiration 3, percent of patients [1]: (1.11%)
change of spontaneous perspiration −1, number of patients [1]: 101
change of spontaneous perspiration −1, percent of patients [1]: (7.00%)
change of spontaneous perspiration −2, number of patients [1]: 13
change of spontaneous perspiration −2, percent of patients [1]: (0.90%)
change of spontaneous perspiration −3, number of patients [1]: 2
change of spontaneous perspiration −3, percent of patients [1]: (0.14%)
distribution of total score of TCM symptom: Medium, number of patients (6 months after treatment): 377
distribution of total score of TCM symptom: Medium, percentage of patients (6 months after treatment): (26.40%)
distribution of total score of TCM symptom: Mild, number of patients (6 months after treatment): 1044
distribution of total score of TCM symptom: Mild, percentage of patients (6 months after treatment): (73.11%)
distribution of total score of TCM symptom: Severe, number of patients (6 months after treatment): 7
distribution of total score of TCM symptom: Severe, percentage of patients (6 months after treatment): (0.49%)
fatigue score 0, % of patients (6 months after treatment): (31.00%)
fatigue score 0, number of patients (6 months after treatment): 443
fatigue score 2, % of patients (6 months after treatment): (61.65%)
fatigue score 2, number of patients (6 months after treatment): 881
fatigue score 4, % of patients (6 months after treatment): (6.79%)
fatigue score 4, number of patients (6 months after treatment): 97
fatigue score 6, % of patients (6 months after treatment): (0.56%)
fatigue score 6, number of patients (6 months after treatment): 8
pale complexion score 0, number of patients (6 months after treatment): 750
pale complexion score 0, percent of patients (6 months after treatment): (52.48%)
pale complexion score 1, number of patients (6 months after treatment): 540
pale complexion score 1, percent of patients (6 months after treatment): (37.79%)
pale complexion score 2, number of patients (6 months after treatment): 133
pale complexion score 2, percent of patients (6 months after treatment): (9.31%)
pale complexion score 3, number of patients (6 months after treatment): 6
pale complexion score 3, percent of patients (6 months after treatment): (0.42%)
palpitation score 0, number of patients (6 months after treatment): 456
palpitation score 0, percent of patients (6 months after treatment): (31.91%)
palpitation score 2, number of patients (6 months after treatment): 764
palpitation score 2, percent of patients (6 months after treatment): (53.46%)
palpitation score 4, number of patients (6 months after treatment): 192
palpitation score 4, percent of patients (6 months after treatment): (13.44%)
palpitation score 6, number of patients (6 months after treatment): 17
palpitation score 6, percent of patients (6 months after treatment): (1.19%)
short breath score 0, % of patients (6 months after treatment): (25.21%)
short breath score 0, number of patients (6 months after treatment): 360
short breath score 2, % of patients (6 months after treatment): (0.07%)
short breath score 2, number of patients (6 months after treatment): 1
short breath score 3, % of patients (6 months after treatment): (58.68%)
short breath score 3, number of patients (6 months after treatment): 838
short breath score 6, % of patients (6 months after treatment): (15.55%)
short breath score 6, number of patients (6 months after treatment): 222
short breath score 9, % of patients (6 months after treatment): (0.49%)
short breath score 9, number of patients (6 months after treatment): 7
spontaneous perspiration score 0, number of patients (6 months after treatment): 628
spontaneous perspiration score 0, percent of patients (6 months after treatment): (43.98%)
spontaneous perspiration score 1, number of patients (6 months after treatment): 676
spontaneous perspiration score 1, percent of patients (6 months after treatment): (47.34%)
spontaneous perspiration score 2, number of patients (6 months after treatment): 117
spontaneous perspiration score 2, percent of patients (6 months after treatment): (8.19%)
spontaneous perspiration score 3, number of patients (6 months after treatment): 7
spontaneous perspiration score 3, percent of patients (6 months after treatment): (0.49%)
total score of TCM symptom, Max (6 months after treatment): 34.00
total score of TCM symptom, Md (6 months after treatment): 9.00
total score of TCM symptom, Mean (6 months after treatment): 9.79
total score of TCM symptom, Min (6 months after treatment): 0.00
change of fatigue 0, % of patients [2]: (55.47%)
change of fatigue 0, number of patients [2]: 791
change of fatigue 2, % of patients [2]: (30.01%)
change of fatigue 2, number of patients [2]: 428
change of fatigue 4, % of patients [2]: (6.80%)
change of fatigue 4, number of patients [2]: 97
change of fatigue 6, % of patients [2]: (1.12%)
change of fatigue 6, number of patients [2]: 16
change of fatigue −2, % of patients [2]: (6.03%)
change of fatigue −2, number of patients [2]: 86
change of fatigue −4, % of patients [2]: (0.56%)
change of fatigue −4, number of patients [2]: 8
change of fatigue −6, % of patients [2]: (0.00%)
change of fatigue −6, number of patients [2]: 0
change of pale complexion 0, number of patients [2]: 1104
change of pale complexion 0, percent of patients [2]: (77.47%)
change of pale complexion 1, number of patients [2]: 272
change of pale complexion 1, percent of patients [2]: (19.09%)
change of pale complexion −1, number of patients [2]: 49
change of pale complexion −1, percent of patients [2]: (3.44%)
change of palpitation 0, number of patients [2]: 842
change of palpitation 0, percent of patients [2]: (59.09%)
change of palpitation 1, number of patients [2]: 431
change of palpitation 1, percent of patients [2]: (30.25%)
change of palpitation 2, number of patients [2]: 53
change of palpitation 2, percent of patients [2]: (3.72%)
change of palpitation 3, number of patients [2]: 7
change of palpitation 3, percent of patients [2]: (0.49%)
change of palpitation −1, number of patients [2]: 88
change of palpitation −1, percent of patients [2]: (6.18%)
change of palpitation −2, number of patients [2]: 4
change of palpitation −2, percent of patients [2]: (0.28%)
change of short breath 0, % of patients [2]: (63.53%)
change of short breath 0, number of patients [2]: 906
change of short breath 2, % of patients [2]: (27.14%)
change of short breath 2, number of patients [2]: 387
change of short breath 4, % of patients [2]: (3.16%)
change of short breath 4, number of patients [2]: 45
change of short breath 6, % of patients [2]: (0.56%)
change of short breath 6, number of patients [2]: 8
change of short breath −2, % of patients [2]: (5.33%)
change of short breath −2, number of patients [2]: 76
change of short breath −4, % of patients [2]: (0.14%)
change of short breath −4, number of patients [2]: 2
change of short breath −6, % of patients [2]: (0.14%)
change of short breath −6, number of patients [2]: 2
